Laboratory results taken from patent US20260193293A1, “PEPTIDES CAPABLE OF INHIBITING PROTEIN-PROTEIN INTERACTIONS AT GABAB1A SUBUNIT AND USES THEREOF” (UNIVERSITY OF COPENHAGEN, priority 2022, published 2026).
Where two headings read alike, the source gives them in different places. Each block holds one compound with its values, some of them ahead of it. Non-standard residues stand in square brackets, D forms with d. Residues, ends and D or L forms follow the SMILES beside them. Phe(4-tBu) = CC(C)(C)c1ccc(C[C@H](N)C(=O)O)cc1; NMeT = CN[C@H](C(=O)O)[C@@H](C)O

Target: Sushi domains (SD1/2) protein
Assay: Fluorescence polarization (FP) competition assay with AJAP-1probe, calculated Ki
Format: binding
Settings: read-out: Ki (nM) mean ± SEM
In short: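 Competition against 25 nM TAMRA-labelled peptide probe binding SD1/2, in PBS pH 7.4 with 1% BSA at rt, read at 530/580 nm. IC50 from sigmoidal dose-response fits, at least triplicate; Ki calculated from IC50 using probe Kd from saturation binding.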

[1] = Table 4, truncation and elongation scans of APP epitope
[2] = Table 8, Ala-, D-amino acids and N-methylation scans of AJAP-1WT
[3] = Table 11, deep mutational scanning validation variants of AJAP-1WT
[4] = Table 5, elongation and truncation scan of AJAP-1 binding epitope

Compound: CC[C@H](C)[C@H](NC(=O)[C@H](Cc1c[nH]c2ccccc12)NC(=O)[C@H](CC(=O)O)NC(=O)[C@H](CC(=O)O)NC(=O)[C@H](CC(=O)O)NC(=O)[C@H](CCC(=O)O)NC(=O)[C@H](CCCNC(=N)N)NC(=O)[C@H](CCCNC(=N)N)NC(=O)[C@H](CCCNC(=N)N)NC(=O)[C@H](CCCNC(=N)N)NC(=O)[C@H](CCCNC(=N)N)NC(=O)[C@H](CCCNC(=N)N)NC(C)=O)C(=O)N[C@@H](CC(=O)O)C(=O)N[C@@H](Cc1c[nH]c2ccccc12)C(=O)N[C@@H](Cc1ccc(O)cc1)C(=O)N[C@@H](CC(=O)O)C(=O)N[C@@H](CO)C(=O)N[C@@H](CC(=O)O)C(=O)N[C@@H](CC(=O)O)C(=O)N[C@@H](CC(=O)O)C(N)=O (Ac-RRRRRREDDDWIDWYDSDDD-NH2)
Ki (Table 14, CPPs tagged peptides): 70.9 ± 1 nM

Compound: CC(=O)N[C@@H](CCC(=O)O)C(=O)N[C@@H](CCC(=O)O)C(=O)N[C@@H](CC(=O)O)C(=O)N[C@@H](CC(=O)O)C(=O)N[C@@H](CO)C(=O)N[C@@H](CC(=O)O)C(=O)N[C@H](C(=O)N[C@@H](Cc1c[nH]c2ccccc12)C(=O)N[C@@H](Cc1c[nH]c2ccccc12)C(=O)NCC(=O)NCC(=O)N[C@@H](C)C(=O)N[C@@H](CC(=O)O)C(=O)N[C@H](C(=O)N[C@@H](CC(=O)O)C(=O)N[C@@H](Cc1ccc(O)cc1)C(=O)N[C@@H](C)C(=O)N[C@@H](CC(=O)O)C(=O)NCC(=O)NCC(=O)N[C@@H](CCC(=O)O)C(=O)N[C@@H](CC(=O)O)C(N)=O)[C@@H](C)O)C(C)C (Ac-EEDDSDVWWGGADTDYADGGED-NH2)
Ki [1]: 356 ± 11 nM

Compound: CC[C@H](C)[C@H](NC(=O)[C@H](Cc1ccccc1)NC(=O)[C@H](CCC(=O)O)NC(=O)[C@@H](NC(=O)[C@@H](NC(C)=O)C(C)C)[C@@H](C)O)C(=O)N[C@@H](C)C(=O)N[C@@H](Cc1c[nH]c2ccccc12)C(=O)NCC(=O)N1CCC[C@H]1C(=O)N[C@H](C(=O)NCC(=O)N[C@@H](CC(=O)O)C(=O)N[C@@H](CCC(=O)O)C(=O)N[C@@H](CC(=O)O)C(N)=O)[C@@H](C)O [VTEFIAWGPTGDED]
Ki [3]: 67 ± 1 nM

Compound: CC[C@H](C)[C@H](NC(=O)[C@H](Cc1ccccc1)NC(=O)[C@H](CCC(=O)O)NC(=O)[C@H](C)NC(=O)[C@H](CCC(=O)O)NC(C)=O)C(=O)N[C@@H](C)C(=O)N[C@@H](Cc1c[nH]c2ccccc12)C(=O)NCC(=O)N1CCC[C@H]1C(=O)N[C@H](C(=O)NCC(=O)N[C@@H](CC(=O)O)C(=O)N[C@@H](CCC(=O)O)C(=O)N[C@@H](CC(=O)O)C(N)=O)[C@@H](C)O [EAEFIAWGPTGDED] (Ac-EAEFIAWGPTGDED-NH2)
Ki [2]: 34 ± 3 nM

Compound: CC[C@H](C)[C@H](NC(=O)[C@H](Cc1ccccc1)NC(=O)[C@H](CCC(=O)O)NC(=O)[C@@H](NC(=O)[C@H](CCC(=O)O)NC(C)=O)[C@@H](C)O)C(=O)N[C@@H](C)C(=O)N[C@@H](Cc1c[nH]c2ccccc12)C(=O)NCC(=O)N1CCC[C@H]1C(=O)N[C@H](C(=O)NCC(=O)N[C@@H](Cc1c[nH]cn1)C(=O)N[C@@H](CCC(=O)O)C(=O)N[C@@H](CC(=O)O)C(N)=O)[C@@H](C)O [ETEFIAWGPTGHED] (Ac-ETEFIAWGPTGHED-NH2)
Ki [3]: 60 ± 4 nM

Compound: CC[C@H](C)[C@H](NC(=O)[C@H](Cc1ccccc1)NC(=O)[C@H](CCC(=O)O)NC(=O)[C@@H](NC(=O)[C@H](CCC(=O)O)NC(C)=O)[C@@H](C)O)C(=O)N[C@@H](C)C(=O)N[C@@H](Cc1c[nH]c2ccccc12)C(=O)NCC(=O)N1CCC[C@H]1C(=O)N[C@H](C(=O)NCC(=O)N[C@@H](CC(=O)O)C(=O)N[C@@H](C)C(=O)N[C@@H](CC(=O)O)C(N)=O)[C@@H](C)O (Ac-ETEFIAWGPTGDAD-NH2)
Ki [2]: 38 ± 1 nM

Compound: CC[C@H](C)[C@H](NC(=O)[C@H](C)NC(=O)[C@H](Cc1c[nH]c2ccccc12)NC(=O)[C@@H]1CCCN1C(C)=O)C(=O)N[C@H](C(=O)N[C@@H](Cc1c[nH]c2ccccc12)C(=O)NCC(=O)N1CCC[C@H]1C(=O)N[C@H](C(=O)N[C@H](C(=O)N[C@@H](CO)C(=O)N[C@@H](CCCNC(=N)N)C(=O)N[C@@H](CCC(=O)O)C(=O)N[C@@H](C)C(N)=O)C(C)C)[C@@H](C)O)C(C)C (Ac-PWAIVWGPTVSREA-NH2)
Ki (Table 9, Ala-, D-amino acids and N-methylation scans of PIANPWT): 572 ± 9 nM

Compound: CC[C@H](C)[C@H](NC(=O)[C@H](Cc1ccccc1)NC(=O)[C@H](CCC(=O)O)NC(=O)[C@@H](NC(=O)[C@H](CCC(=O)O)NC(C)=O)[C@@H](C)O)C(=O)N[C@@H](C)C(=O)N[C@@H](Cc1c[nH]c2ccccc12)C(=O)N[C@@H](Cc1ccc(O)cc1)C(=O)NCC(=O)N1CCC[C@H]1C(=O)N[C@@H](C)C(=O)N[C@@H](CC(=O)O)C(=O)N[C@H](C(=O)N[C@@H](CC(=O)O)C(N)=O)[C@@H](C)O (Ac-ETEFIAWYGPADTD-NH2)
Ki (Table 13, peptides for affinity maturation): 182 ± 2 nM

Continued, values first:

Ki [1]: > 62500 nM
Compound: CC(=O)N[C@@H](Cc1c[nH]c2ccccc12)C(=O)NCC(=O)NCC(=O)N[C@@H](C)C(=O)N[C@@H](CC(=O)O)C(=O)N[C@H](C(=O)N[C@@H](CC(=O)O)C(=O)N[C@@H](Cc1ccc(O)cc1)C(=O)N[C@@H](C)C(=O)N[C@@H](CC(=O)O)C(N)=O)[C@@H](C)O (Ac-WGGADTDYAD-NH2)

Ki [2]: 688 ± 11 nM
Compound: CC[C@H](C)[C@H](NC(=O)[C@H](C)NC(=O)[C@H](CCC(=O)O)NC(=O)[C@@H](NC(=O)[C@H](CCC(=O)O)NC(C)=O)[C@@H](C)O)C(=O)N[C@@H](C)C(=O)N[C@@H](Cc1c[nH]c2ccccc12)C(=O)NCC(=O)N1CCC[C@H]1C(=O)N[C@H](C(=O)NCC(=O)N[C@@H](CC(=O)O)C(=O)N[C@@H](CCC(=O)O)C(=O)N[C@@H](CC(=O)O)C(N)=O)[C@@H](C)O [ETEAIAWGPTGDED] (Ac-ETEAIAWGPTGDED-NH2)

Ki (Table 3, SPOT hit validation and previously reported peptides): 687 ± 17 nM
Compound: CC(=O)N[C@@H](CC(=O)O)C(=O)N[C@@H](CC(=O)O)C(=O)N[C@@H](CO)C(=O)N[C@@H](CC(=O)O)C(=O)N[C@H](C(=O)N[C@@H](Cc1c[nH]c2ccccc12)C(=O)N[C@@H](Cc1c[nH]c2ccccc12)C(=O)NCC(=O)NCC(=O)N[C@@H](C)C(=O)N[C@@H](CC(=O)O)C(=O)N[C@H](C(=O)N[C@@H](CC(=O)O)C(=O)N[C@@H](Cc1ccc(O)cc1)C(=O)N[C@@H](C)C(=O)N[C@@H](CC(=O)O)C(=O)NCC(N)=O)[C@@H](C)O)C(C)C (Ac-DDSDVWWGGADTDYADG-NH2)

Ki (Table 12, deep mutational scanning validation variants of PIANPWT): 383 ± 3 nM
Compound: CC[C@H](C)[C@H](NC(=O)[C@H](C)NC(=O)[C@H](Cc1c[nH]c2ccccc12)NC(=O)[C@@H]1CCCN1C(C)=O)C(=O)N[C@H](C(=O)N[C@@H](Cc1c[nH]c2ccccc12)C(=O)NCC(=O)N1CCC[C@H]1C(=O)N[C@H](C(=O)N[C@@H](CO)C(=O)N[C@@H](CO)C(=O)N[C@@H](CCCNC(=N)N)C(=O)N[C@@H](CCC(=O)O)C(=O)N[C@@H](CC(=O)O)C(N)=O)[C@@H](C)O)C(C)C [PWAIVWGPTSSRED] (Ac-PWAIVWGPTSSRED-NH2)

Ki [4]: 30 ± 0.5 nM
Compound: CC[C@H](C)[C@H](NC(=O)[C@H](Cc1ccccc1)NC(=O)[C@H](CCC(=O)O)NC(=O)[C@@H](NC(=O)[C@H](CCC(=O)O)NC(=O)[C@@H](NC(=O)[C@@H](NC(=O)[C@@H]1CCCN1C(C)=O)[C@@H](C)O)[C@@H](C)O)[C@@H](C)O)C(=O)N[C@@H](C)C(=O)N[C@@H](Cc1c[nH]c2ccccc12)C(=O)NCC(=O)N1CCC[C@H]1C(=O)N[C@H](C(=O)NCC(=O)N[C@@H](CC(=O)O)C(=O)N[C@@H](CCC(=O)O)C(=O)N[C@@H](CC(=O)O)C(N)=O)[C@@H](C)O (Ac-PTTETEFIAWGPTGDED-NH2)

Ki (Table 16, ncAAs incorporated peptides): 269 ± 3 nM
Compound: EDDS(Buphe)VWWGGADTD (Ac-EDDS[Phe(4-tBu)]VWWGGADTD-NH2)

Ki [4]: 1010 ± 67 nM
Compound: CC[C@H](C)[C@H](NC(=O)[C@H](Cc1ccccc1)NC(=O)[C@H](CCC(=O)O)NC(=O)[C@@H](NC(=O)[C@H](CCC(=O)O)NC(=O)[C@@H](NC(C)=O)[C@@H](C)O)[C@@H](C)O)C(=O)N[C@@H](C)C(=O)N[C@@H](Cc1c[nH]c2ccccc12)C(N)=O (Ac-TETEFIAW-NH2)

Ki [1]: 1786 ± 16 nM
Compound: CC(=O)N[C@@H](CCC(=O)O)C(=O)N[C@@H](CCC(=O)O)C(=O)N[C@@H](CC(=O)O)C(=O)N[C@@H](CC(=O)O)C(=O)N[C@@H](CO)C(=O)N[C@@H](CC(=O)O)C(=O)N[C@H](C(=O)N[C@@H](Cc1c[nH]c2ccccc12)C(=O)N[C@@H](Cc1c[nH]c2ccccc12)C(N)=O)C(C)C (Ac-EEDDSDVWW-NH2)

Ki [1]: 343 ± 17 nM
Compound: CC(=O)N[C@@H](CCC(=O)O)C(=O)N[C@@H](CCC(=O)O)C(=O)N[C@@H](CC(=O)O)C(=O)N[C@@H](CC(=O)O)C(=O)N[C@@H](CO)C(=O)N[C@@H](CC(=O)O)C(=O)N[C@H](C(=O)N[C@@H](Cc1c[nH]c2ccccc12)C(=O)N[C@@H](Cc1c[nH]c2ccccc12)C(=O)NCC(=O)NCC(=O)N[C@@H](C)C(=O)N[C@@H](CC(=O)O)C(=O)N[C@H](C(=O)N[C@@H](CC(=O)O)C(=O)N[C@@H](Cc1ccc(O)cc1)C(=O)N[C@@H](C)C(=O)N[C@@H](CC(=O)O)C(=O)NCC(N)=O)[C@@H](C)O)C(C)C (Ac-EEDDSDVWWGGADTDYADG-NH2)

Ki (Table 7, Ala-, D-amino acids and N-methylation scans of APPWT): 503 ± 13 nM
Compound: CC(=O)N[C@@H](CCC(=O)O)C(=O)N[C@@H](CC(=O)O)C(=O)N[C@@H](CC(=O)O)C(=O)N[C@@H](CO)C(=O)N[C@@H](CC(=O)O)C(=O)N[C@H](C(=O)N[C@@H](Cc1c[nH]c2ccccc12)C(=O)N[C@@H](Cc1c[nH]c2ccccc12)C(=O)NCC(=O)NCC(=O)N[C@@H](C)C(=O)N[C@@H](CC(=O)O)C(=O)N(C)[C@H](C(=O)N[C@@H](CC(=O)O)C(N)=O)[C@@H](C)O)C(C)C (Ac-EDDSDVWWGGAD[NMeT]D-NH2)

Ki [3]: 54 ± 1 nM
Compound: CC[C@H](C)[C@H](NC(=O)[C@H](Cc1ccccc1)NC(=O)[C@H](CCC(=O)O)NC(=O)[C@@H](NC(=O)[C@H](CCC(=O)O)NC(C)=O)[C@@H](C)O)C(=O)N[C@@H](C)C(=O)N[C@@H](Cc1c[nH]c2ccccc12)C(=O)NCC(=O)N1CCC[C@H]1C(=O)N[C@H](C(=O)NCC(=O)N[C@@H](CC(=O)O)C(=O)N[C@@H](Cc1c[nH]c2ccccc12)C(=O)N[C@@H](CC(=O)O)C(N)=O)[C@@H](C)O (Ac-ETEFIAWGPTGDWD-NH2)
